Data from the NIST ThermoML archive (doi:10.1016/j.jct.2015.06.023).

What was measured:
[1] = excess molar enthalpy (molar enthalpy of mixing); xn = mol fraction of the nth substance listed; details: 363.2 K, 100 kPa, Liquid, Flow calorimetry
[2] = activity coefficient (dimensionless); of the first substance listed, at infinite dilution; xn = mol fraction of the nth substance listed; details: 100 kPa, Liquid, Chromatography, x1 = 0
[3] = Liquid; for mass density: 101.33 kPa, Vibrating tube method; for vapor or sublimation pressure: 363.2 K, Closed cell (Static) method

CCCCCC[n+]1ccccc1.O=S(=O)([N-]S(=O)(=O)C(F)(F)F)C(F)(F)F [1-hexylpyridinium bis(trifluromethylsulfonyl)imide] + CCCCO
[1]
Details	excess molar enthalpy [kcal/mol]
x2 = 0.043	0.0722
x2 = 0.083	0.14
x2 = 0.157	0.258
x2 = 0.222	0.356
x2 = 0.282	0.436
x2 = 0.384	0.55
x2 = 0.469	0.619
x2 = 0.572	0.661
x2 = 0.655	0.652
x2 = 0.743	0.594
x2 = 0.812	0.505
x2 = 0.868	0.399
x2 = 0.914	0.284
x2 = 0.952	0.168
x2 = 0.985	0.0549

CCCCO [butan-1-ol] + CCCCCC[n+]1ccccc1.O=S(=O)([N-]S(=O)(=O)C(F)(F)F)C(F)(F)F
[2]
Details	activity coefficient
303.2 K	2.74
313.2 K	1.72
323.2 K	1.59
333.2 K	1.42
343.2 K	1.25

CCCO [propan-1-ol] + CCCCCC[n+]1ccccc1.O=S(=O)([N-]S(=O)(=O)C(F)(F)F)C(F)(F)F
[2]
Details	activity coefficient
303.2 K	1.98
313.2 K	1.49
323.2 K	1.47
333.2 K	1.26
343.2 K	1.15

C1CCCCC1 [cyclohexane] + CCCCCC[n+]1ccccc1.O=S(=O)([N-]S(=O)(=O)C(F)(F)F)C(F)(F)F
[2]
Details	activity coefficient
303.2 K	5.19
313.2 K	4.86
323.2 K	4.68
333.2 K	4.41
343.2 K	4.3

CCCCCC[n+]1ccccc1.O=S(=O)([N-]S(=O)(=O)C(F)(F)F)C(F)(F)F [1-hexylpyridinium bis(trifluromethylsulfonyl)imide]
[3]
Details	mass density [kg/m3]
293.15 K	1389.16
298.15 K	1384.56
299.15 K	1383.67
303.15 K	1380.22
313.15 K	1371.26
323.15 K	1362.38
333.15 K	1353.54
343.15 K	1344.76
353.15 K	1336.02

CCCCO [butan-1-ol]
Details	vapor or sublimation pressure [kPa]
[3]	34.47

CCO [ethanol] + CCCCCC[n+]1ccccc1.O=S(=O)([N-]S(=O)(=O)C(F)(F)F)C(F)(F)F
[2]
Details	activity coefficient
303.2 K	1.64
313.2 K	1.35
323.2 K	1.28
333.2 K	1.13
343.2 K	0.996

CCCCCC[n+]1ccccc1.O=S(=O)([N-]S(=O)(=O)C(F)(F)F)C(F)(F)F [1-hexylpyridinium bis(trifluromethylsulfonyl)imide] + CCCO
[1]
Details	excess molar enthalpy [kcal/mol]
x2 = 0.052	0.0851
x2 = 0.1	0.165
x2 = 0.185	0.299
x2 = 0.259	0.402
x2 = 0.324	0.483
x2 = 0.432	0.589
x2 = 0.519	0.643
x2 = 0.621	0.661
x2 = 0.699	0.633
x2 = 0.779	0.56
x2 = 0.841	0.462
x2 = 0.889	0.358
x2 = 0.928	0.251
x2 = 0.961	0.146
x2 = 0.988	0.0477

CCCO [propan-1-ol]
Details	vapor or sublimation pressure [kPa]
[3]	76.56

c1ccccc1 [benzene] + CCCCCC[n+]1ccccc1.O=S(=O)([N-]S(=O)(=O)C(F)(F)F)C(F)(F)F
[2]
Details	activity coefficient
303.2 K	0.639
313.2 K	0.655
323.2 K	0.627
333.2 K	0.657
343.2 K	0.605

Cc1ccccc1 [toluene] + CCCCCC[n+]1ccccc1.O=S(=O)([N-]S(=O)(=O)C(F)(F)F)C(F)(F)F
[2]
Details	activity coefficient
303.2 K	0.828
313.2 K	0.868
323.2 K	0.82
333.2 K	0.847
343.2 K	0.882
